From US7635702B2, “Imidazole compounds as transforming growth factor (TGF) inhibitors” (Pfizer Inc., priority 2002, dated 2009)

Target: T1, ALK-5 (TβRI) (Homo sapiens, UniProt P36897)
T1 construct: using either the kinase domain of ALK5 with Smad3 as substrate; GST
T1 sequence (P36897 205-495 limits assumed): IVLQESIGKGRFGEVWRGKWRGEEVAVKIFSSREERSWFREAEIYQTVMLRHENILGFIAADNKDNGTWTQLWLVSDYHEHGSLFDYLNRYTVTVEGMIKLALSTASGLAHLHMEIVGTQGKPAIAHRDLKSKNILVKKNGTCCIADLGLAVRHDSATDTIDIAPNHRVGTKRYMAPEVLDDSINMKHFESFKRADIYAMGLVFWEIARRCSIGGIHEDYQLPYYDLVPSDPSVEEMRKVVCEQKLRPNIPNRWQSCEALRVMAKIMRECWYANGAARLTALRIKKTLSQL
Assay: ALK-5 (TβRI) kinase assay
Type: biochemical
Conditions: GST-ALK5 with GST-Smad3 substrate, 33P-ATP
Protocol: The kinase assays were performed with 65 nM GST-ALK5 and 84 nM GST-Smad3 in 50 mM HEPES, 5 mM MgCl2, 1 mM CaCl2, 1 mM dithiothreitol, and 3_M ATP. Reactions were incubated with 0.5_Ci of [33 P]_ATP for 3 h at 30° C. Phosphorylated protein was captured on P-81 paper (Whatman, Maidstone, England), washed with 0.5% phosphoric acid, and counted by liquid scintillation. Alternatively, Smad3 or Smad1 protein was also coated onto FlashPlate Sterile Basic Microplates (PerkinElmer Life Sciences, Boston, Mass.). Kinase assays were then performed in Flash-Plates with same assay conditions using either the kinase domain of ALK5 with Smad3 as substrate or the kinase domain of ALK6 (BMP receptor) with Smad1 as substrate. Plates were washed three times with phosphate buffer and counted by TopCount (Packard Bio-science, Meriden, Conn.). (Laping, N.J. et al. Molecular Pharmacology 62:58-64 (2002)).

Compound: Cc1cccc(-c2[nH]cnc2-c2ccc3nnn(C)c3c2)n1 [Example 12, 1-Methyl-6-[5-(6-methyl-pyridin-2-yl)-1H-imidazol-4-yl]-1H-benzotriazole]
- IC50: ~44.5 nM
